Measurements taken from US20190030114A1, “ISOFORM-SPECIFIC CALPAIN INHIBITORS, METHODS OF IDENTIFICATION, AND USES THEREOF” (WESTERN UNIVERSITY OF HEALTH SCIENCES, priority 2014, published 2019).

Legend:
[1] = system: field CA1 in acute hippocampal slices from male UBEA mutant mice; test: field EPSP recording, LTP in hippocampal slices from UBEA mutant mice (Angelman Syndrome model); type: cell-based; conditions: 200 nM
Experimental: FIG. 4: Field recording of excitatory postsynaptic potentials (EPSPs) performed in stratum radiatum of field CA1 in acute hippocampal slices prepared from male UBEA mutant mice (a model of Angelman Syndrome) or their wild-type littermates in the presence or absence of 200 nM of the calpain-2 selective inhibitor, Formula I (mCalp-I in the drawing). Results are expressed as percent of the average values over a 10 min baseline period and are means±S.E.M. of the indicated number of experiments.
A calpain 2-specific inhibitor rescues LTP impairment in hippocampal slices from a mouse model of Angelman Syndrome. Field recording of excitatory postsynaptic potentials (EPSPs) was performed in stratum radiatum of field CA1 in acute hippocampal slices prepared from male UBEA mutant mice or their wild-type littermates.

calpain-2 = target: T1, calpain-2 (Homo sapiens, UniProt P17655); conditions: Li et al, 1996; read-out: Ki for calpain-2 (m-calpain), literature; cited from earlier work
T1 sequence (P17655 1-700): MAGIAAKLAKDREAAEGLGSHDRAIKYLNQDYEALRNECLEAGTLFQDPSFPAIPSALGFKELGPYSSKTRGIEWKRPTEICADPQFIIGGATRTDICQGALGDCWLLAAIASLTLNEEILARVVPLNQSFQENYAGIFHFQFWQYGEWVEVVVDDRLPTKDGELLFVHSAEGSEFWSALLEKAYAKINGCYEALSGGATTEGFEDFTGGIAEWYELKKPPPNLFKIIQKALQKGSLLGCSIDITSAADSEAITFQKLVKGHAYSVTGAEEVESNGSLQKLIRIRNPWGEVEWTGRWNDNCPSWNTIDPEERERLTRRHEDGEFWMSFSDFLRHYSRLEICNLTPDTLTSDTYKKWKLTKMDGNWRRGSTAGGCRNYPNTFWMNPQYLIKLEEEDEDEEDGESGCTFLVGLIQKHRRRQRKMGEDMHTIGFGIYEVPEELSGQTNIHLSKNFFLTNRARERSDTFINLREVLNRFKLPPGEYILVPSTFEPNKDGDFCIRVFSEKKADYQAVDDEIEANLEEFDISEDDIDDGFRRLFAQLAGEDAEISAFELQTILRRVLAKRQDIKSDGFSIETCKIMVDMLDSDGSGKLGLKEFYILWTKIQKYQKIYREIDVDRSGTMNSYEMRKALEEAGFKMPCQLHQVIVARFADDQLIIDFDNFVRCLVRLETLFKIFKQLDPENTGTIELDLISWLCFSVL
T1 sequence (P04632 1-268 partner): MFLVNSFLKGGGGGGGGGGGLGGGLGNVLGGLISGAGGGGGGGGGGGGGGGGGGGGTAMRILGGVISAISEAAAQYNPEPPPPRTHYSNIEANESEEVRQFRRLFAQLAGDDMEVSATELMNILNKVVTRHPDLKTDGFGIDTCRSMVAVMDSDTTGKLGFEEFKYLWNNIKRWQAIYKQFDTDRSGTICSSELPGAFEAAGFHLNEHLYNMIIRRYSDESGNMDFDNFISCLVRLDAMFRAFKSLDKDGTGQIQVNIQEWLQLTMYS

SMILES: CCC(NC(=O)C(CC(C)C)NC(=O)OCc1ccccc1)C(=O)C(=O)NCc1cc(OC)cc(OC)c1 (racemic) [Formula 1, Z-Leu-Abu-CONH—CH2-C6H3 (3, 5-(OMe)2)]
- LTP magnitude in slices from UBEA mutant mice [1]: restored LTP magnitude to the level found in slices from wild-type mice
- initial increase in fEPSP elicited by TBS [1]: no effect
- Ki (calpain-2): 22 nM
